Experiments:
Experiment in all cases: KINOMEscan competition binding
Conditions in all cases: compound 1.0 µM
CSNK1A1 (human) = CSNK1A1 (human) (UniProt P48729)
PIM1 (human) = PIM1 (human) (UniProt P11309)
NLK (human) = NLK (human) (UniProt Q9UBE8)
LIMK2 (human) = LIMK2 (human) (UniProt P53671)
DDR2 (human) = DDR2 (human) (UniProt Q16832)
STK10 (human) = STK10 (human) (UniProt O94804)
[1] = system: ABL1 (human), P00519 [Y253F]
TLK1 (human) = TLK1 (human) (UniProt Q9UKI8)
NEK3 (human) = NEK3 (human) (UniProt P51956)
RPS6KA2 KD2 (human) = RPS6KA2 KD2 (human) (UniProt Q15349)
DYRK1B (human) = DYRK1B (human) (UniProt Q9Y463)
[2] = system: KIT (human), P10721 [V559D]
GRK1 (human) = GRK1 (human) (UniProt Q15835)
PKN3 (M.tuberculosis) = PKN3 (M.tuberculosis) (UniProt Q6P5Z2)
Chain of PKN3 (M.tuberculosis) (Q6P5Z2 whole entry, looked up): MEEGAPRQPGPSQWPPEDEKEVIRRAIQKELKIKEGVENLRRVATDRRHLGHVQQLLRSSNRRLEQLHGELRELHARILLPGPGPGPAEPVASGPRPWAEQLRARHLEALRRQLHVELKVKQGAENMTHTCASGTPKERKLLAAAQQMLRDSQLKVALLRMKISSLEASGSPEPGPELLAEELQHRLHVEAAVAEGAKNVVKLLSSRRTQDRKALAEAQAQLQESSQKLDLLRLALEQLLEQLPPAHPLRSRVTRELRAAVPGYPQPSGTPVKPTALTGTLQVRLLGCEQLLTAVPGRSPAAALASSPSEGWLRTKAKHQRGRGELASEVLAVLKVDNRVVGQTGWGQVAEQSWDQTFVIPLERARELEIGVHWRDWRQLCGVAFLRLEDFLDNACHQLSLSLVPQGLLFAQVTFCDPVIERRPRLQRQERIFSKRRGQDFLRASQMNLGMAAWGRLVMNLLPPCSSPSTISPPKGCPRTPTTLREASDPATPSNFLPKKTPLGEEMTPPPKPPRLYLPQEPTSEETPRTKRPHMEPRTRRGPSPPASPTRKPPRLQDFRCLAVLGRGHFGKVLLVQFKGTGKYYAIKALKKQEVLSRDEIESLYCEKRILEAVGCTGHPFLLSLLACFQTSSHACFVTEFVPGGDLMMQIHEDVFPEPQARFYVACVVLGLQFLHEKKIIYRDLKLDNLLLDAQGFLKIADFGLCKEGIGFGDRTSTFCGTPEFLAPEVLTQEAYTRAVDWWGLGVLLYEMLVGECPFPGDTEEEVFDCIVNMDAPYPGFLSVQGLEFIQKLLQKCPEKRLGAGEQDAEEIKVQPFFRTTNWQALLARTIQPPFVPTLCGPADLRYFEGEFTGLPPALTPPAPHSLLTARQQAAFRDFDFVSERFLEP

GRK4 (human) = GRK4 (human) (UniProt P32298)
HIPK4 (human) = HIPK4 (human) (UniProt Q8NE63)
[3] = system: PIK3CA (human), P42336 [M1043I]
PTK2 (human) = PTK2 (human) (UniProt Q05397)
PIP4K2B (human) = PIP4K2B (human) (UniProt P78356)
Chain of PIP4K2B (human) (P78356 whole entry, looked up): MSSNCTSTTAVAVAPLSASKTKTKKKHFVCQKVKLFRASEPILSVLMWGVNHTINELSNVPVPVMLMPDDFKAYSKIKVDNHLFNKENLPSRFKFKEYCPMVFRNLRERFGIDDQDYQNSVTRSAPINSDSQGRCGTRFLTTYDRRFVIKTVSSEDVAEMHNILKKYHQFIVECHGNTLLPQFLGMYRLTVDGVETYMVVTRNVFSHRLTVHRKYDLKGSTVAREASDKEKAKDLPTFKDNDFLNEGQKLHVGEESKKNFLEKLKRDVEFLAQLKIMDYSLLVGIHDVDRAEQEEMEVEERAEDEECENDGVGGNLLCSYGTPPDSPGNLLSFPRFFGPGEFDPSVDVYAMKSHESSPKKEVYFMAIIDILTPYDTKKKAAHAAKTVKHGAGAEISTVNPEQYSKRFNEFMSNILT

CHEK2 (human) = CHEK2 (human) (UniProt O96017)
AAK1 (human) = AAK1 (human) (UniProt Q2M2I8)
CAMK1G (human) = CAMK1G (human) (UniProt Q96NX5)
Chain of CAMK1G (human) (Q96NX5 whole entry, looked up): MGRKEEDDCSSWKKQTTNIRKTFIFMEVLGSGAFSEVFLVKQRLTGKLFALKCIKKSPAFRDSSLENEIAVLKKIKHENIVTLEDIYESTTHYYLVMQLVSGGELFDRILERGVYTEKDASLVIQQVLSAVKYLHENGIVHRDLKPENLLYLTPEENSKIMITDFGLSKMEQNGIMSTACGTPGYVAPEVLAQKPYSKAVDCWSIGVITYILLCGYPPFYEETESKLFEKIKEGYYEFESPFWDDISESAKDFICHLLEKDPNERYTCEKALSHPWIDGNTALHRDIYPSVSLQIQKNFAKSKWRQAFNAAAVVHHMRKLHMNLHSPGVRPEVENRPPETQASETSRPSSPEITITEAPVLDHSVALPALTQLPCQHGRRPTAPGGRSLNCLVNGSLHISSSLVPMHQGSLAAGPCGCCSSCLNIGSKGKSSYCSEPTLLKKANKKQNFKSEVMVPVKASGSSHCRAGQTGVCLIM

ROCK2 (human) = ROCK2 (human) (UniProt O75116)
PRKCD (human) = PRKCD (human) (UniProt Q05655)
Chain of PRKCD (human) (Q05655 whole entry, looked up): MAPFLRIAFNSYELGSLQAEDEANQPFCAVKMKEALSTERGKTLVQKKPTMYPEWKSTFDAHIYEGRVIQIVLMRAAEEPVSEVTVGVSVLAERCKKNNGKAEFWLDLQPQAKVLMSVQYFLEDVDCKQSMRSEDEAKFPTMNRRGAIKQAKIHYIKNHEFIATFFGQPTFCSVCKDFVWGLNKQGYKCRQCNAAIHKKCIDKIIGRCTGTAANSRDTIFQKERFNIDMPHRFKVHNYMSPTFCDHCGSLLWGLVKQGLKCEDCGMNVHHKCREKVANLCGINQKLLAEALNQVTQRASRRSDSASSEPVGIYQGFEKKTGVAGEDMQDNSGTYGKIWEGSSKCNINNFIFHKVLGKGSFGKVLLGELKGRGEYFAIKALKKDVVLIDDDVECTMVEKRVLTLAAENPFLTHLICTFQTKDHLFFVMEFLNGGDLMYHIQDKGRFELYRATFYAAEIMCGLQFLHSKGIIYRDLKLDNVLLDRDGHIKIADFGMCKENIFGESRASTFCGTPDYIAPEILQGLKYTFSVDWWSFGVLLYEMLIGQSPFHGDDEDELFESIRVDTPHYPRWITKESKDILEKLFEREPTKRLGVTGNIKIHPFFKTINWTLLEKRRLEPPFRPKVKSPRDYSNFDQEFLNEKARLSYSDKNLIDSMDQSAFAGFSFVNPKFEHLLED

NTRK1 (human) = NTRK1 (human) (UniProt P04629)
Chain of NTRK1 (human) (P04629 whole entry, looked up): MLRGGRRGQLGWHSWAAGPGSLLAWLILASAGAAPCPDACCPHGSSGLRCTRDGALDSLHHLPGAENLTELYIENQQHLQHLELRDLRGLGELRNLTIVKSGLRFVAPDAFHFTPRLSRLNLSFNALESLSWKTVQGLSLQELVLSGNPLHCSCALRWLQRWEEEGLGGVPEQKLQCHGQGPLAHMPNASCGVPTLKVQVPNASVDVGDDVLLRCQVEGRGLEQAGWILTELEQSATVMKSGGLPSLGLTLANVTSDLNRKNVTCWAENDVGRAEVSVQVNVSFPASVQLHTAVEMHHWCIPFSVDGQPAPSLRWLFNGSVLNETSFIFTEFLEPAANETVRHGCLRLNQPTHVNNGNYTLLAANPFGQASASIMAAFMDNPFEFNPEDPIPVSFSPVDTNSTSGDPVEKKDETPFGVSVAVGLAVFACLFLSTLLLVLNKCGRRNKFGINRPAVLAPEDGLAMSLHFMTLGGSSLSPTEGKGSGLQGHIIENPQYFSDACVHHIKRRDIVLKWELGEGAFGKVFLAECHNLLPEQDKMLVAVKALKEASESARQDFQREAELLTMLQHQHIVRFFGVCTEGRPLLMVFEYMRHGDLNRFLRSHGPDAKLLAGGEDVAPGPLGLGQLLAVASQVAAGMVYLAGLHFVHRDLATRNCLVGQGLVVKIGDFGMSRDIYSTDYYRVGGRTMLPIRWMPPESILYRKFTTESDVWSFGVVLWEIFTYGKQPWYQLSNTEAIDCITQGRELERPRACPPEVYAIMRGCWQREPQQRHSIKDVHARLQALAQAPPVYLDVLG

DCLK1 (human) = DCLK1 (human) (UniProt O15075)
BMPR2 (human) = BMPR2 (human) (UniProt Q13873)
[4] = system: FLT3 (human), P36888 [R834Q]
FGFR3 (human) = FGFR3 (human) (UniProt P22607)
MYLK (human) = MYLK (human) (UniProt Q15746)
TIE1 (human) = TIE1 (human) (UniProt P35590)
CDK4 CCND3 (human) = CDK4 CCND3 (human) (UniProt P11802+P30281)
MAPK8 (human) = MAPK8 (human) (UniProt P45983)
Chain of MAPK8 (human) (P45983 whole entry, looked up): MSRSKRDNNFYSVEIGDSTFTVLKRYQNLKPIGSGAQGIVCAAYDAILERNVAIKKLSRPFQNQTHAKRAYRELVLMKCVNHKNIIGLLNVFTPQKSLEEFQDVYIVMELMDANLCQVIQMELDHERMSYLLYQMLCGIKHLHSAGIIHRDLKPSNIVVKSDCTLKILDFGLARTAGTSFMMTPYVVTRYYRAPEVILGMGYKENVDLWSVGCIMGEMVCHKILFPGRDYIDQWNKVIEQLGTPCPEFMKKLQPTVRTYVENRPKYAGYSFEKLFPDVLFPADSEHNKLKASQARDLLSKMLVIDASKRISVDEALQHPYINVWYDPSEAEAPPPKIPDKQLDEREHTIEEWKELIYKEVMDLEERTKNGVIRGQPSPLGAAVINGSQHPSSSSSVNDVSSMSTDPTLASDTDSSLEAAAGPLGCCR

[5] = system: KIT (human), P10721 [D816H]
FGR (human) = FGR (human) (UniProt P09769)
CASK (human) = CASK (human) (UniProt O14936)
MAP3K9 (human) = MAP3K9 (human) (UniProt P80192)
MARK2 (human) = MARK2 (human) (UniProt Q7KZI7)
CDKL1 (human) = CDKL1 (human) (UniProt Q00532)
Chain of CDKL1 (human) (Q00532 whole entry, looked up): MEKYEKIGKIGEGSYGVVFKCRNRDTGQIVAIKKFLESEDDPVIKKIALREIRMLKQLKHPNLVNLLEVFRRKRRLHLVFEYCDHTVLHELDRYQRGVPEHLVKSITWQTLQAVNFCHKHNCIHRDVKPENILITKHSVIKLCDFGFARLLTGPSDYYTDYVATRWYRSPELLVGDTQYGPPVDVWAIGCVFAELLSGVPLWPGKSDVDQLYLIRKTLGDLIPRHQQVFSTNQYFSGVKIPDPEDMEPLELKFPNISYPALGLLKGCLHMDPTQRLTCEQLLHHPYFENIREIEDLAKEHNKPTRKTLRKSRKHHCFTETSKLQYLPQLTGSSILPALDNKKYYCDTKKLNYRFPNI

Chain of NLK (human) (Q9UBE8 whole entry, looked up): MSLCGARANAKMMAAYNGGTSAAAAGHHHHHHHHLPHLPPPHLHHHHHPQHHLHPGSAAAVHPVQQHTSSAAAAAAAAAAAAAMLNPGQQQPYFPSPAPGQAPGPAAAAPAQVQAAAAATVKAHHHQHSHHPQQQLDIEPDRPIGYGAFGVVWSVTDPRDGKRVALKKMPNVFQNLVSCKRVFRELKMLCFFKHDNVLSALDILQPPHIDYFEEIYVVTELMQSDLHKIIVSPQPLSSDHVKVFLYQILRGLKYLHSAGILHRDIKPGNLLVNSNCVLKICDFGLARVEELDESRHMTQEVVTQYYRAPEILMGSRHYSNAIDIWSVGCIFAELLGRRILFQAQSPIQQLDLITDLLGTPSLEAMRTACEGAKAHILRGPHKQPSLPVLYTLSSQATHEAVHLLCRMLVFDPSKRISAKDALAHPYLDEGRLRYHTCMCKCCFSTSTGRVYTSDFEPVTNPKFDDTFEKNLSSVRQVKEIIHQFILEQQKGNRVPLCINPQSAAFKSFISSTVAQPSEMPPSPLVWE
Chain of CSNK1A1 (human) (P48729 whole entry, looked up): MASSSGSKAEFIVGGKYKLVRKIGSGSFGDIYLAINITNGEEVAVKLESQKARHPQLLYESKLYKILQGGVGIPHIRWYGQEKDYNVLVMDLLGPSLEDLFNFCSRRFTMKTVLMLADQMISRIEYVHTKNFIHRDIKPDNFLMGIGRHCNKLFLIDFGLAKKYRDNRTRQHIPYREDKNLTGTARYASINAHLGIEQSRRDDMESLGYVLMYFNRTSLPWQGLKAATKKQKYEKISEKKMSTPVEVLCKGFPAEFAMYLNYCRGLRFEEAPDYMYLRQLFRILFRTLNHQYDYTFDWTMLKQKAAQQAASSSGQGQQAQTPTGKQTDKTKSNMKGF

CNc1nc(Nc2ccc(C(=O)N3CCOCC3)cc2OC)ncc1Cl
kinase still bound, per cent of control (CSNK1A1 (human)): 100%
kinase still bound, per cent of control (PIM1 (human)): 100%
kinase still bound, per cent of control (NLK (human)): 100%
kinase still bound, per cent of control (LIMK2 (human)): 100%
kinase still bound, per cent of control (DDR2 (human)): 100%
kinase still bound, per cent of control (STK10 (human)): 100%
kinase still bound, per cent of control [1]: 69%
kinase still bound, per cent of control (TLK1 (human)): 93%
kinase still bound, per cent of control (NEK3 (human)): 100%
kinase still bound, per cent of control (RPS6KA2 KD2 (human)): 92%
kinase still bound, per cent of control (DYRK1B (human)): 100%
kinase still bound, per cent of control [2]: 18%
kinase still bound, per cent of control (GRK1 (human)): 100%
kinase still bound, per cent of control (PKN3 (M.tuberculosis)): 85%
kinase still bound, per cent of control (GRK4 (human)): 75%
kinase still bound, per cent of control (HIPK4 (human)): 100%
kinase still bound, per cent of control [3]: 93%
kinase still bound, per cent of control (PTK2 (human)): 88%
kinase still bound, per cent of control (PIP4K2B (human)): 83%
kinase still bound, per cent of control (CHEK2 (human)): 26%
kinase still bound, per cent of control (AAK1 (human)): 38%
kinase still bound, per cent of control (CAMK1G (human)): 96%
kinase still bound, per cent of control (ROCK2 (human)): 100%
kinase still bound, per cent of control (PRKCD (human)): 49%
kinase still bound, per cent of control (NTRK1 (human)): 99%
kinase still bound, per cent of control (DCLK1 (human)): 100%
kinase still bound, per cent of control (BMPR2 (human)): 85%
kinase still bound, per cent of control [4]: 100%
kinase still bound, per cent of control (FGFR3 (human)): 100%
residual activity (MYLK (human)): 75%
kinase still bound, per cent of control (TIE1 (human)): 100%
residual activity (CDK4 CCND3 (human)): 36%
kinase still bound, per cent of control (MAPK8 (human)): 44%
kinase still bound, per cent of control [5]: 100%
kinase still bound, per cent of control (FGR (human)): 100%
kinase still bound, per cent of control (CASK (human)): 97%
kinase still bound, per cent of control (MAP3K9 (human)): 100%
kinase still bound, per cent of control (MARK2 (human)): 100%
residual activity (CDKL1 (human)): 100%

Source: the kinase profiling compilation of Christmann-Franck et al. (2016)
